Measured values: patent US10251891B2, “Aprepitant oral liquid formulations” (InnoPharma, Inc., priority 2014, dated 2019)

Test: Solubility of aprepitant in water
Format: physicochemical
Excerpt: Moreover, it should be recognized that the particle size of the active pharmaceutical ingredient may have important effects on the bioavailability of a formulation. Smaller particle sizes often have increased surface area and will thus dissolve faster than larger particles. However, decreasing the particle size will often increase agglomeration of the particles, and an increased surface area of smaller particles can result in faster degradation of the compound, e.g., due to oxidation and/or hydrolysis. The inventors have now found out that a fine particle size, and especially an average particle size between 0.250 and 0.400 micron, could achieve a desirable bioavailability (typically identical to that of commercially available solid oral aprepitant, EMEND). Such particle size may preferably be achieved using air-jet milling, ball milling, or mortar milling.

- solubility in water: practically insoluble in water
Structure (SMILES): C[C@@H](O[C@H]1OCCN(Cc2n[nH]c(=O)[nH]2)[C@H]1c1ccc(F)cc1)c1cc(C(F)(F)F)cc(C(F)(F)F)c1 [Aprepitant, 5-([(2R,3S)-2-((R)-1-[3,5-bis(trifluoromethyl)phenyl]ethoxy)-3-(4-fluoro-phenyl)morpholino]methyl)-1H-1,2,4-triazol-3(2H)-one]
